Test results published in article PMC10206040, “Identification of novel anti-amoebic pharmacophores from kinase inhibitor chemotypes” (Frontiers in Microbiology, 2023).
Where two headings read alike, the source gives them in different places.

Legend:
[1] = system: Naegleria fowleri (ATCC 30215) trophozoites; test: microbe, parasite or virus in culture
Method: Trophozoites were routinely grown axenically at 34°C, 5% CO2, in Nelson’s complete medium (NCM) in non-vented 75 cm^2 tissue culture flasks (Olympus), until the cells were 80–90% confluent. For sub-culturing, cells were placed on ice to detach the cells from the culture flasks. […] Complete NCM media is prepared by the addition of 10% fetal bovine serum (FBS) and 100 U/mL penicillin, and 100 μg/mL streptomycin antibiotics.
Trophozoites were routinely cultured as described above and only logarithmic trophozoites were used.
All assays were incubated at each of the parasites’ representative growth temperatures, described above, for 72 h. At the 72-h time point, 25 μL of CellTiter-Glo 2.0 reagent was added to all wells of the 96-well plates by hand. The plates were protected from light and contents were mixed using an orbital shaker at 300 rpm at room temperature for 2 min to induce cell lysis. After shaking, the plates were equilibrated at room temperature for 10 min to stabilize the luminescent signal. The ATP luminescent signal (relative light units; RLUs) were measured […] with a SpectraMax I3X plate reader (Molecular Devices, Sunnyvale, CA, United States). […] Values reported are from a minimum of three biological replicates with standard deviation.

[2] = system: Balamuthia mandrillaris (CDC:V039; ATCC 50209) trophozoites; test: CellTiter-Glo 2.0 trophocidal assay, B. mandrillaris; type: cell-based; conditions: Balamuthia mandrillaris, ATCC50209, 72 h, read-out: Balamuthia mandrillaris EC50 ± SD
Description: For sub-culturing, 0.25% Trypsin–EDTA (Gibco) cell detachment reagent was used to detach the cells from the culture flasks.

[3] = Human fetal lung fibroblast (MRC5) cell cytotoxicity assay (resazurin); conditions: human
Method: (§1) Intermediate plates were made as described, adding 95 μL of DMEM complete media to 5 μL of compound per well setting a 5% DMSO amount. Log-phase MRC5 cells were removed from a T-75 TC flask using TrypLE® Express (Thermo®) and dispersed by gentle pipetting. Cell density was adjusted to working concentration in prewarmed DMEM medium: 25,000 cells in 90 μL of culture were plated in 96-well transparent Nunclon plates and allowed to settle for 24 h at 37°C and 5% CO2. […] Plates were incubated for 48 h at 37°C and 5% CO2. At 4 h prior to fluorescence measurement, 20 μL of 500 μM resazurin solution was added.
(§2) A four-parameter equation was used to fit the dose–response curves and determination of EC50 by SigmaPlot ® 13.0 software. Assays were performed in duplicate at least twice for positive compounds, to achieve a minimal […] per dose response.

[4] = system: Acanthamoeba castellanii T4 isolate (ATCC 50370) trophozoites; test: CellTiter-Glo 2.0 trophocidal assay, A. castellanii; type: cell-based; conditions: read-out: Acanthamoeba castellanii EC50 ± SD
Description: This isolate was purchased from American Type Culture Collection (ATCC). […] For sub-culturing, cells were mechanically harvested to detach the cells from the culture flasks.

MRC5 cells = test: Human fetal lung fibroblast (MRC5) cell cytotoxicity assay (resazurin); conditions: Table S2
Method: as §1, §2

THP-1 = test: Cytotoxicity assay in THP-1 (MTT); type: cell-based; conditions: Table S2, 72 h, maximal concentration 50 μM
Method: Cytotoxicity assay in TH P-1. Cellular toxicity of all compounds was determined using the colorimetric MTT-based assay after incubation at 37 °C for 72 h in the presence of increasing concentrations of compounds (final maximal concentration was 50 μM in 0.5% DMSO per well) [ 1] . The results are expressed […]
cells. Assays were performed in duplicate at least twice to achieve a minimal n=3 per dose response. […]
Cytotoxicity assay in THP-1. Cellular toxicity of all compounds was determined using the colorimetric MTT-based assay after incubation at 37 °C for 72 h in the presence of increasing concentrations of compounds (final maximal concentration was 50 μM in 0.5% DMSO per well). […] Assays were performed in duplicate at least twice to achieve a minimal n=3 per dose response.

[5] = Naegleria fowleri, 72 h, read-out: Naegleria fowleri EC50 ± SD, logarithmic trophozoites, 72 h, n = 3 (converted)
[6] = MRC5 cells (human fetal lung fibroblasts)
[7] = Acanthamoeba castellanii, ATCC50370, 72 h
[8] = Acanthamoeba castellanii, ATCC50370, 72 h, logarithmic trophozoites, 72 h, n = 3
[9] = logarithmic trophozoites, 72 h, n = 3
[10] = Naegleria fowleri, ATCC30215, 72 h, read-out: Naegleria fowleri EC50 ± SD, logarithmic trophozoites, 72 h, n = 3 (converted)
[11] = read-out: Naegleria fowleri EC50 ± SD, logarithmic trophozoites, 72 h, n = 3

Compound | EC50 [1, 5] | EC50 [2] | CC50 at 48 h [3, 6] | EC50 [1, 10] | MRC5 TC50 ± Standard Deviation (MRC5 cells) | other results
c1cncc(Nc2nccc(-c3c(C4CC4)nn4ncccc34)n2)c1 [Compound 2r] | 16 ± 3.7 µM | 13 ± 7.5 µM | > 50 µM |  |  | 
N#Cc1cccc(Nc2nccc(-c3c(C4CC4)nn4nc(N5CCOCC5)ccc34)n2)c1 [Compound 2c] | 3.5 ± 0.7 µM |  | > 50 µM |  |  | EC50 [4, 7]: 5.9 ± 0.17 µM
CN(C)S(=O)(=O)c1ccc(N/N=C2\C(=O)Nc3ccccc32)cc1 [Compound S30] | > 20 µM |  |  |  |  | EC50 [4, 8]: > 20 µM; EC50 [2, 9]: > 20 µM; MRC5 TC50 ± Standard Deviation (MRC5 cells; in µM): > 50; THP-1 TC50 ± Standard Deviation (THP-1): > 50
COc1ccc(-c2nn3ncccc3c2-c2ccnc(Nc3ccccc3)n2)cc1 [Compound 2i] | 17 ± 3.5 µM |  | > 50 µM |  |  | 
COc1ccn2c(NC(=O)c3ccc(F)cn3)c(-c3ccccn3)nc2c1 [Compound 3k, 5-Fluoro-N-[7-methoxy-2-(pyridin-2-yl)imidazo[1,2-a]pyridin-3-yl]pyridine-2-carboxamide] |  |  |  | > 20 µM | 64 µM | 
COCc1nn2ncccc2c1-c1ccnc(Nc2cccc(C#N)c2)n1 [Compound 2l] |  |  | > 50 µM |  |  | EC50 [1, 11]: ≤ 14 µM; EC50 ([1]; read-out: Naegleria fowleri EC50 ± SD, logarithmic trophozoites, 72 h, n = 3, listed as 2 l): 1.1 ± 0.16 µM
COc1ccn2c(Nc3ccccc3F)c(-c3cccnc3)nc2c1 [Compound 3g, N-(2-fluorophenyl)-7-methoxy-2-(pyridin-3-yl)imidazo[1,2-a]pyridin-3-amine] |  |  |  | > 20 µM | 64 µM | 
N#Cc1cccc(Nc2cccc(-c3cnn4ncccc34)c2)c1 [Compound 2g] |  | > 20 µM | 19 ± 1 µM |  |  | EC50 [4, 7]: > 20 µM
Nc1c(-c2ccccn2)nc2cc(F)ccn12 [Compound 3a, 7-Fluoro-2-(pyridin-2-yl)imidazo[1,2-a]pyridin-3-amine] |  |  |  | 15 ± 4.7 µM | 64 µM | EC50 [4, 8]: < 10 µM; EC50 [4, 9]: 6.94 ± 0.11 µM
COc1cccc(Nc2nccc(-c3cnn4ccccc34)n2)c1 [Compound 2h] |  | 3.3 ± 0.97 µM | > 50 µM |  |  | 
Fc1ccn2c(NC3CC3)c(-c3ccccn3)nc2c1 [Compound 3d, N-Cyclopropyl-7-fluoro-2-(pyridin-2-yl)imidazo[1,2-a]pyridin-3-amine] |  |  |  | > 20 µM | 64 µM | EC50 [4, 8]: > 20 µM
COc1ccc2c(-c3ccnc(NC4CCC(O)CC4)n3)c(C3CC3)nn2n1 (centres unmarked) [Compound 2u] |  | 9.4 ± 3.4 µM | > 50 µM |  |  | 
COc1ccn2c(Nc3ccccc3F)c(-c3ncccn3)nc2c1 [Compound 3i, N-(2-Fluorophenyl)-7-methoxy-2-(pyrimidin-2-yl)imidazo[1,2-a]pyridin-3-amine] |  |  |  | > 20 µM | 49 µM | 
COc1ccn2c(NC(=O)c3cccc(F)c3)c(-c3ccccn3)nc2c1 [Compound 3l, 3-Fluoro-N-[7-methoxy-2-(pyridin-2-yl)imidazo[1,2-a]pyridin-3-yl]benzamide] |  |  |  | > 20 µM | 59 µM | 
COc1ccn2c(Nc3ccccc3F)c(-c3cccc(C)n3)nc2c1 [Compound 3c, N-(2-Fluorophenyl)-7-methoxy-2-(6-methylpyridin-2-yl)imidazo[1,2-a]pyridin-3-amine] |  |  |  | > 20 µM | 64 µM | EC50 [4, 8]: > 20 µM
COc1cccc(Nc2nccc(-c3cnn4nc(N5CCOCC5)ccc34)n2)c1 [Compound 2j] |  | 4.9 ± 1.6 µM | > 50 µM |  |  | 

Compound | EC50 [1, 5] | EC50 [2] | CC50 at 48 h [3, 6] | EC50 [1, 10] | MRC5 TC50 ± Standard Deviation (MRC5 cells) | other results
N#Cc1cccc(Nc2nccc(-c3c(C4CC4)nn4ncccc34)n2)c1 [Compound 2o] | 9.6 ± 6.6 µM |  | > 50 µM |  |  | 
CC(C)Nc1c(-c2ccccn2)nc2cc(C(F)(F)F)ccn12 [Compound 3f, N-(Propan-2-yl)-2-(pyridin-2-yl)-7-(trifluoromethyl)imidazo[1,2-a]pyridin-3-amine] |  |  |  | > 20 µM | 53 µM | 
COc1ccc2c(-c3ccnc(NC4CCC(O)CC4)n3)cnn2n1 (centres unmarked) [Compound 2s] |  | 11 ± 4.2 µM | > 50 µM |  |  | 
CC(O)c1nn2ncccc2c1-c1ccnc(Nc2cccc(C#N)c2)n1 (centres unmarked) [Compound 2m] | 17 ± 0.76 µM |  | > 50 µM |  |  | 
COc1ccn2c(Nc3ccccc3F)c(-c3ccncn3)nc2c1 [Compound 3j] |  |  |  | > 20 µM | 46 µM | 
COc1ccn2c(Nc3ccccc3F)c(-c3cnn(C)c3)nc2c1 [Compound 3b, N-(2-Fluorophenyl)-7-methoxy-2-(1-methyl-1H-pyrazol-4-yl)imidazo[1,2-a]pyridin-3-amine] |  |  |  | 13 ± 6.7 µM | 64 µM | 
OC1CCC(Nc2nccc(-c3cnn4nc(N5CCOCC5)ccc34)n2)CC1 (centres unmarked) [Compound 2k] | ≤ 14 µM | > 20 µM | > 50 µM |  |  | EC50 [1, 11]: 7.5 ± 2.5 µM
Cc1cc(-c2cnn3ncccc23)nc(Nc2cccc(C#N)c2)n1 [Compound 2e] |  |  | > 50 µM |  |  | EC50 [4, 7]: > 20 µM
c1ccc(Nc2nccc(-c3cnn4ccccc34)n2)cc1 [Compound 2a] | 0.94 ± 0.17 µM | 4.2 ± 0.6 µM | > 50 µM |  |  | EC50 [4, 7]: 13 ± 6.9 µM
COc1ccn2c(NC(=O)c3ccccc3F)c(-c3ccccn3)nc2c1 [Compound 3h, 2-Fluoro-N-[7-methoxy-2-(pyridin-2-yl)imidazo[1,2-a]pyridin-3-yl]benzamide] |  |  |  | > 20 µM | 64 µM | 
c1cnn2ncc(-c3ccnc(NC4CCCCC4)n3)c2c1 [Compound 2p] | 1.4 ± 0.76 µM | 7.5 ± 3.1 µM | > 50 µM |  |  | 
CC(C)c1nn2ncccc2c1-c1ccnc(Nc2cccc(C#N)c2)n1 [Compound 2n] | 1.3 ± 0.33 µM |  | 33 ± 2 µM |  |  | 
N#Cc1cccc(Nc2cccc(-c3cnn4ncccc34)n2)c1 [Compound 2f] |  | > 20 µM | > 50 µM |  |  | EC50 [4, 7]: > 20 µM
c1ccc(Nc2nccc(-c3cnn4ncccc34)n2)nc1 [Compound 2t] |  | 10 ± 2.8 µM | > 50 µM |  |  | 
Fc1ccc(Nc2nccc(-c3c(C4CC4)nn4ncccc34)n2)cc1F [Compound 2q] |  |  |  | 12 ± 7.8 µM |  | CC50 at 48 h [3]: > 50 µM; MRC5 TC50 ± Standard Deviation (MRC5 cells; in µM): > 50
